# Values of other authors, collected in patent publication US20260284233A1, “IMAGING METHODS AND AGENTS FOR GRADING AND STAGING AND SUBSEQUENT TREATMENT OF PROSTATE CANCER IN A PATIENT” (Progenics Pharmaceuticals, Inc., priority 2023, published 2026).
# Assays:
# [1] = test system: extracellular domain of PSMA
# [2] = 333 MBq (9 mCi) dose; data from clinical trials; compared with commonly used tracers for oncologic imaging
structure (smiles),measurement,setting,value
O=C(O)CC[C@H](NC(=O)N[C@@H](CCCCNC(=O)c1ccc([18F])nc1)C(=O)O)C(=O)O [piflufolastat F18],binding affinity to the extracellular domain of PSMA,[1],high affinity
same,mean effective radiation dose to the whole body,[2],lower than commonly used tracers for oncologic imaging
